Like-named read-outs stand apart in the source and are kept apart here.
Columns and labels:
Dmel\Or35a + Dmel\Orco = biological target: T1, Dmel\Or35a + Dmel\Orco (Drosophila melanogaster, UniProt Q9VNB5); test: Inhibition of heteromeric OR in oocytes (hexanol or OLC12 activation); type: cell-based; settings: Orco agonist activation of Dmel\Or35a + Dmel\Orco
T1 construct: expressed in transfected cells; host or cells: Xenopus laevis oocytes
T1 sequence (Q9VNB5 1-486): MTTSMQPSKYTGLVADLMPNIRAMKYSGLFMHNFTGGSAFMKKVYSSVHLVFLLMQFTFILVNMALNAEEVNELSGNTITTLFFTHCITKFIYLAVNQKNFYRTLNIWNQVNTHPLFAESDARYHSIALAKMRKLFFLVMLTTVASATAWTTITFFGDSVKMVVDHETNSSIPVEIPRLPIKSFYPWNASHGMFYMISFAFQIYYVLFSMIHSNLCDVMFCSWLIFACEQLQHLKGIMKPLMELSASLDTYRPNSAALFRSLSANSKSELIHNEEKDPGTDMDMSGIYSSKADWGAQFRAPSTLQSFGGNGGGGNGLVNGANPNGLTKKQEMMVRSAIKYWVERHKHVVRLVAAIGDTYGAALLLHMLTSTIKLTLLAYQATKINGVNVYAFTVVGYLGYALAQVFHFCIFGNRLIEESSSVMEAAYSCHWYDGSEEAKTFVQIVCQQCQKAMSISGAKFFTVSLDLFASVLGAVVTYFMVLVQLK
T1 sequence (Q9V3Q2 1-409 partner): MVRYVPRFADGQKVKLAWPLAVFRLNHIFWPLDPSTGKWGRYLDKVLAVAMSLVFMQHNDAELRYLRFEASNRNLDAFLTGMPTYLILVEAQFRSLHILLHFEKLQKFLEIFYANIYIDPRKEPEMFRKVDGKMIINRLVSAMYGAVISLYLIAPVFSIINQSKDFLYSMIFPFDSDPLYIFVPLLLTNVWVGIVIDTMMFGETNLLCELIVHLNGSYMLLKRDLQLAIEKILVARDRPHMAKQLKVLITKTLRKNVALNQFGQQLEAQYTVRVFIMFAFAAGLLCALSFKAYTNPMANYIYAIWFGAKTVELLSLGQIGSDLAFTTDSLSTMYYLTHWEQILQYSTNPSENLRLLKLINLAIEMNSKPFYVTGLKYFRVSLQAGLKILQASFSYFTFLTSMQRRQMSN
Experimental: (§1) An automated parallel electrophysiology system (OpusExpress 6000 A, Molecular Devices) was used to record Orco agonist (OLC12) or odorant induced currents under two-electrode voltage clamp. Oocytes were perfused with ND96 (in mM: 96 NaCl, 2 KCl, 1 CaCl2, 1 MgCl2, 5 HEPES, pH 7.4). DMSO was used to prepare 1 M or 100 mM stock solutions of test compounds, which were then diluted in ND96 on the day of the experiment. Compounds were applied at a flow rate of 1.0 mL/min, with extensive washing in ND96 at 4.6 mL/min between applications. Micropipettes with resistances of 0.2–2.0 MΩ were filled with 3 M KCl. The holding potential was −70 mV. Current responses were filtered (4-pole, Bessel, low pass) at 20 Hz (−3 db) and sampled at 100 Hz. OpusXpress 1.1 software (Molecular Devices) was used to capture and store current responses.
(§2) To measure the ability of Orco antagonists to inhibit odorant activation, oocytes expressing heteromeric ORs (Orco + ORX) were exposed to a 30 sec application of odorant followed by a 20 min wash. Oocytes were then exposed to a 90 sec application of Orco antagonist, immediately followed by a 30 sec co-application of Orco antagonist and odorant. The current response to odorant in the presence of Orco antagonist was compared to the preceding response to odorant alone and represented as a percentage. This value was then normalized to the value obtained when the assay was run in the absence of antagonist (sham).
(§3) Figure S3. Effects of Orco antagonists on heteromeric ORs. […]
(§4) heteromeric complexes of odorant specificity subunits and Orco. The Orco antagonists tested were 3-isopropyl-6-methyl-catechol (3 I6 MC), a potent compound from the input training set, and two compounds id e ntified in Fig u re 4 an d Ta b le 1 : 2-tert-butyl-6-methylphenol (B MP ) and linalyl formate (LF) . These compounds were tested for antagonist activity against odorant activation of three ORs from Anopheles gambiae (Agam\Or28 + Agam\Orco, Agam\Or39 + A ga m\Orco, Agam\Or65 + A ga m\Orco), o ne O R fro m Culex quinquefasciatus, the southern house mosquito (Cq u i\Or21 + Cqui\Orco) an d on e O R f ro m Drosophila melanogaster (Dme l\Or35a + Dmel\Orco). Each OR was activated by its cognate odorant agonist applied at an approximate EC50 concentration. […]
(§5) SEM (n = 4). […] Statistical significance of the data in each panel was assessed by one-way analysis of variance followed by Dunnett’s multiple comparison test using the pre-normalized values for each antagonist compared to the values obtained in the sham recordings (*, p < 0 .0 5; **, p < 0. 01; ***, p < 0 . 00 1 ).

Cqui\Or21 + Cqui\Orco = test: Inhibition of heteromeric OR in oocytes (3-methylindole or OLC12 activation); type: cell-based, Culex quinquefasciatus; settings: Orco agonist activation of Cqui\Or21 + Cqui\Orco
Experimental: as §1, §2, §3, §4, §5

Dmel\Or69a = tested on: Dmel\Or69a; design: method as in ref 1 Münch, D., Galizia, C.G. DoOR 2.0 (2016); settings: ref 1 Münch, D., Galizia, C.G. DoOR 2.0 (2016); cited from earlier work
Agam\ORs = tested on: Agam\ORs; design: method as in ref 2-5 (a number printed in a supplementary file, which may have a reference list of its own: not looked up in the article's list); settings: cited from earlier work
Agam\Orco = biological target: T2, Agam\Orco (Anopheles gambiae, UniProt Q7QCC7); test: cell-based; type: cell-based
T2 construct: expressed in transfected cells; host or cells: Xenopus laevis oocytes injected with capped cRNA (plasmid pT7TS, gift of L. Zwiebel)
T2 sequence (Q7QCC7 1-478): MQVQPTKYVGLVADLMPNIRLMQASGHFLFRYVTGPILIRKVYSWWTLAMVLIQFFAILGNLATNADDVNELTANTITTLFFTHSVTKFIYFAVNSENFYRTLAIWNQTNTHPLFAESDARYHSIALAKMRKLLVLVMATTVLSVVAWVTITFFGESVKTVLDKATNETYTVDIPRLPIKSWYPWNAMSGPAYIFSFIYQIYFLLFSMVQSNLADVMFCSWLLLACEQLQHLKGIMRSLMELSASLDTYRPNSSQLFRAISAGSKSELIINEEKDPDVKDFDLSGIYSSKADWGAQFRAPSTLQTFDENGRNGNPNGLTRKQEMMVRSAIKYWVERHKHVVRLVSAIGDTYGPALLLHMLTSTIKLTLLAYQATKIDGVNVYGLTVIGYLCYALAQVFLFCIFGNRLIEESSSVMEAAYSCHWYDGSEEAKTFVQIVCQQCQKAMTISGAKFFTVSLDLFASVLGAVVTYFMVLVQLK
Experimental: A 2 hr incubation with collagenase B (Roche) was used to remove follicle cells from oocytes. Capped cRNA for Agam\Orco was synthesized using mMessage mMachine kits (Thermo Fisher Scientific). 25 ng of cRNA was injected into stage V–VI oocytes, followed by a 2–5 day incubation at 18 °C in Barth’s saline (in mM: 88 NaCl, 1 KCl, 2.4 NaHCO3, 0.3 CaNO3, 0.41 CaCl2, 0.82 MgSO4, 15 HEPES, pH 7.4, and 0.05 g/L tetracycline, 0.05 g/L ciprofloxacin, 0.1 g/L amikacin) prior to electrophysiological recordings.
as §1
To measure antagonist activity at Orco, Agam\Orco was activated by the Orco agonist OLC12[34]. […] The current response to OLC12 in the presence of antagonist candidate was compared to the mean of the preceding two responses to OLC12 alone and presented as a percentage[34],[35]. This value was then normalized to the value obtained when the assay was run in the absence of antagonist candidate (sham).
During development of the training panel (Fig. 2, Tables S1 and S2), all compounds not previously known to be Orco antagonists were tested at a concentration of 3 mM. […] Concentration-inhibition curves were constructed for all compounds eliciting >20 percent inhibition at 3 mM. The same concentration and criteria were used during screening of predicted actives (Fig. 4D) and predicted inactives (Fig. 5C).
Clampfit 9.1 software (Molecular Devices) was used to perform initial analysis of electrophysiological data. Prism 7 (Graphpad) was used for curve fitting. Concentration-inhibition data were fit to the equation: I = Imax/(1 + (X/IC50)^n) where I represents the current response at a given concentration of inhibitor, X; Imax is the maximal response in the absence of inhibitor; IC50 is the concentration of inhibitor present that allows a half maximal response from OLC12; n is the apparent Hill coefficient.

Dmel\Or19a = tested on: Dmel\Or19a; design: method as in ref 1 Münch, D., Galizia, C.G. DoOR 2.0 (2016); settings: ref 1 Münch, D., Galizia, C.G. DoOR 2.0 (2016); cited from earlier work
Dmel\Or85b = tested on: Dmel\Or85b; design: method as in ref 1 Münch, D., Galizia, C.G. DoOR 2.0 (2016); settings: ref 1 Münch, D., Galizia, C.G. DoOR 2.0 (2016); cited from earlier work
Dmel\Or71a = tested on: Dmel\Or71a; design: method as in ref 1 Münch, D., Galizia, C.G. DoOR 2.0 (2016); settings: ref 1 Münch, D., Galizia, C.G. DoOR 2.0 (2016); cited from earlier work
D. melanogaster larvae = test: Larval chemotaxis assay (attraction to ethyl acetate); type: in vivo, Drosophila melanogaster; settings: 10 µL of EA diluted 1:10^−6 in mineral oil vs mineral oil alone; mean ± SEM
Experimental: We have previously provided a detailed description of these methods. Briefly, Canton-S (CS) flies were used as wild type (wt). The experimental chamber was a 100 × 15 mm polystyrene Petri dish (VWR) with 20 mL of 1.1% agarose coating the bottom. In this assay, 50 third-instar larvae were placed inside a “starting circle” at the center of the plate (the circle was drawn on the outside bottom of the plate). A line was also drawn that divided the plate in half. Small filter paper discs (d = 6 mm, Whatman Cellulose Filter Paper, # 1030 023) were placed on opposite sides of the plate (see Fig. 8A). Onto each filter paper disc was placed 10 μL of solution, containing either vehicle of dilution (mineral oil), odorant attractant (EA, diluted in mineral oil) or an Orco antagonist compound (diluted in mineral oil). The sides of the plate on which the compounds or vehicle were placed were alternated from experiment to experiment.
In order to test Orco antagonists for the ability to affect the chemotaxis assay, a large (d = 9 cm) filter paper (Whatman Filter Paper # D00161-S) was adhered with double-sided tape to the inside of the Petri dish lid. This allowed the larvae to be exposed to Orco antagonists in an airborne context. For light repulsion experiments, we used a Zeiss CL6000 LED light source at 76% intensity. Following the 5 min migratory period, plates were photographed, coded and then blind counted. Any larvae still within the starting circle or touching the center line were excluded from the analysis. A Response Index (RI) was calculated as RI = (S − C)/(S + C), where S is the number of larvae on the stimulus (EA) side and C is the number of larvae on the control (mineral oil) side. RI = 1 would indicate complete attraction, RI = −1 would indicate complete repulsion, and RI = 0 would indicate no preference. Statistical significance was assessed using a one-way analysis of the variance followed by Dunnett’s’s post-test.

Dmel\Or83c = tested on: Dmel\Or83c; design: method as in ref 1 Münch, D., Galizia, C.G. DoOR 2.0 (2016); settings: ref 1 Münch, D., Galizia, C.G. DoOR 2.0 (2016); cited from earlier work
Dmel\Or92a = tested on: Dmel\Or92a; design: method as in ref 1 Münch, D., Galizia, C.G. DoOR 2.0 (2016); settings: ref 1 Münch, D., Galizia, C.G. DoOR 2.0 (2016); cited from earlier work
Dmel\Or22a = tested on: Dmel\Or22a; design: method as in ref 1 Münch, D., Galizia, C.G. DoOR 2.0 (2016); settings: ref 1 Münch, D., Galizia, C.G. DoOR 2.0 (2016); cited from earlier work
Dmel\Or67a = tested on: Dmel\Or67a; design: method as in ref 1 Münch, D., Galizia, C.G. DoOR 2.0 (2016); settings: ref 1 Münch, D., Galizia, C.G. DoOR 2.0 (2016); cited from earlier work
[1] = Table S1, training actives, Agam\Orco activated by 30 µM OLC12, mean ± SEM (n = 3-8), read-out: IC50

CCn1c(SCC(=O)Nc2ccc(C(C)C)cc2)nnc1-c1ccncc1 [OLC12, 2-((4-Ethyl-5-(4-pyridinyl)-4H-1,2,4-triazole-3-yl)sulfanyl)-N-(4-isopropylphenyl)acetamide, reference compound]
approximate EC25 (Dmel\Or35a + Dmel\Orco): ~10 µM
approximate EC25 (Cqui\Or21 + Cqui\Orco): ~3 µM

CCc1ccccc1O [2-ethylphenol]
scaled response from DoOR (max = 1.0) (Dmel\Or69a): 0.356
activity at Agam\ORs (Agam\ORs; Or2, Or9, Or10, Or11, Or14, Or18, Or20, Or38, Or41, Or50, Or57): activation
IC50 (Agam\Orco): 261 ± 14 µM
loss of potency relative to BMP (Agam\Orco; Agam\Orco IC50 compared with BMP): 5.5 fold

CC(C)c1ccc(C=O)cc1 [4-isopropylbenzaldehyde]
scaled response from DoOR (max = 1.0) (Dmel\Or19a): 0.351
scaled response from DoOR (max = 1.0) (Dmel\Or85b): 0.222

Cc1ccc(C(C)C)cc1 [p-cymene]
scaled response from DoOR (max = 1.0) (Dmel\Or71a): 0.063

CCOC(C)=O [ethyl acetate, reference compound]
response index (RI) (D. melanogaster larvae): 0.76 ± 0.08
inhibition at 3000 µM (Agam\Orco; read-out: inhibition of Agam\Orco (OLC12 response) at 3 mM, 3 mM compound, 30 µM OLC12): ≤ 20%

CC(C)=CCCC(C)=CCCC(C)=CC=O [farnesal]
scaled response from DoOR (max = 1.0) (Dmel\Or83c): 0.046

O=C/C=C/c1ccccc1 [trans-cinnamaldehyde]
IC50 (Agam\Orco): 1870 ± 94 µM
scaled response from DoOR (max = 1.0) (Dmel\Or19a): 0.112

C=Cc1ccc(O)cc1 [4-hydroxystyrene]
scaled response from DoOR (max = 1.0) (Dmel\Or71a): 0.131

CC(C)=CCC/C(C)=C/C=O [citral]
scaled response from DoOR (max = 1.0) (Dmel\Or69a): 0.483
IC50 (Agam\Orco; [1]): 452 ± 44 µM
scaled response from DoOR (max = 1.0) (Dmel\Or92a): 0.325
scaled response from DoOR (max = 1.0) (Dmel\Or22a): 0.140

CC(C)=CCC[C@@H](C)CC=O [citronellal]
scaled response from DoOR (max = 1.0) (Dmel\Or83c): 0.092
activity at Agam\ORs (basal activity) (Agam\ORs; Or5, Or12, Or15, Or25, Or45, Or73): inhibition of basal
activity at Agam\ORs (Agam\ORs; Or30, Or31, Or48, Or50, Or75): activation

CC(O)CCc1ccccc1 (stereo not shown) [4-phenyl-2-butanol]
scaled response from DoOR (max = 1.0) (Dmel\Or71a): 0.063

CCOC(=O)/C=C/c1ccccc1 [ethyl-trans-cinnamate]
IC50 (Agam\Orco; [1]): 134 ± 16 µM
scaled response from DoOR (max = 1.0) (Dmel\Or67a): 0.143
